Measurements: paper PMC6664820, “Novel natural and synthetic inhibitors of solute carriers SGLT1 and SGLT2” (Pharmacology Research & Perspectives, 2019)
Structures can show the parent of a compound that is named as a salt.

What was measured:
CHO‐hSGLT1/2 cells = assay: Cytotoxicity assay (ToxiLight, adenylate kinase leakage into CHO‐SGLT1/2 inhibition assay media); set-up: CYTOTOXICITY / CY[…], mean / CYTOTOXICITY (% of vehicle control) Mean / CYTOTOXICITY, mean / CY[…] (% of vehicle control) Mean: dose or concentration left out as unconfirmed; settings: for CYTOTOXICITY, mean: ToxiLight, adenylate kinase leakage;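 as to all read-outs here: bioluminescent read-out of adenylate kinase released from lysed cells into the medium, given relative to DMSO vehicle control defined as 0%, higher meaning more cytolysis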
Procedure: The cytotoxicity of representative SGLT1/2 inhibitors and compounds from the different chemical clusters was tested. Cytotoxicity was determined using the ToxiLight bioassay kit according to the supplier's instructions. This nondestructive assay measures leakage of the enzyme adenylate kinase (AK) from damaged cells into the CHO‐SGLT1/2 inhibition assay media, ie the degree of cytolysis. […] Next, bioluminescence was measured using a FlexStation 3 Multi‐Mode Microplate Reader (Molecular Devices) by 1 second integrated reading. Cytotoxicity was expressed as the percentage of bioluminescence of the DMSO vehicle control which was set at 0%. If applicable, statistical outliers were determined using Grubbs’ test (alpha = 0.05) and excluded for calculation of the mean ± SD.

SGLT1 = molecular target: T1, SGLT1 (Homo sapiens, UniProt P13866); assay: SGLT1 inhibition assay for validation of screening hits and similar compounds (1‐NBD‐glucose uptake, CHO‐hSGLT1 cells); format: cell-based; set-up: activity: dose or concentration left out as unconfirmed; settings: mean; for activity: compound, normalized 1-NBD-glucose uptake, CHO-hSGLT1 cells
T1 sequence (P13866 1-664): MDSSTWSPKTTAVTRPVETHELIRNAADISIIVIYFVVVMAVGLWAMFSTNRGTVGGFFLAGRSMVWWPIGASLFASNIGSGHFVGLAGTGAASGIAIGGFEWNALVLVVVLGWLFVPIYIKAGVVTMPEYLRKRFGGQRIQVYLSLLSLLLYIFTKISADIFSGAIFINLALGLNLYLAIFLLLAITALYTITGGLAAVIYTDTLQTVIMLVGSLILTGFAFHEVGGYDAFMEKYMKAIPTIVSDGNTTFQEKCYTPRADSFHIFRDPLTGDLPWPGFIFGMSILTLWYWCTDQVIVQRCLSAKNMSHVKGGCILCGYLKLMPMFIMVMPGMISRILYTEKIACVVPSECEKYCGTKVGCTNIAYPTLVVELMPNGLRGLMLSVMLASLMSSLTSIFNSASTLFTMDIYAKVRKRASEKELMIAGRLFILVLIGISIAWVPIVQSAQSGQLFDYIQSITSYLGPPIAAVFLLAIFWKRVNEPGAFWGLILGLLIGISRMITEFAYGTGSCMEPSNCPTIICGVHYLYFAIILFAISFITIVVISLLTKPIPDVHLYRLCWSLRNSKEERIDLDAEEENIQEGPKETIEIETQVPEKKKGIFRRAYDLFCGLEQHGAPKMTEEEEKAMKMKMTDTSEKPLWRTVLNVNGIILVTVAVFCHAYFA

hSGLT2 = molecular target: T2, hSGLT2 (Homo sapiens, UniProt P31639); assay: SGLT2 inhibition assay for validation of screening hits and similar compounds (1‐NBD‐glucose uptake, CHO‐hSGLT2 cells); format: cell-based; set-up: activity: dose or concentration left out as unconfirmed; settings: for activity: compound, normalized 1-NBD-glucose uptake, CHO-hSGLT2 cells; for SGLT2/SGLT1 ACTIVITY RATIO 5 uM Mean: ratio of normalized SGLT2 to SGLT1 activity at 5 uM; for SGLT2/SGLT1 ACTIVITY RATIO, first concentration / SGLT2/SGLT1 ACTIVITY RATIO, second concentration: ratio of normalized SGLT2 to SGLT1 activity
T2 sequence (P31639 1-672): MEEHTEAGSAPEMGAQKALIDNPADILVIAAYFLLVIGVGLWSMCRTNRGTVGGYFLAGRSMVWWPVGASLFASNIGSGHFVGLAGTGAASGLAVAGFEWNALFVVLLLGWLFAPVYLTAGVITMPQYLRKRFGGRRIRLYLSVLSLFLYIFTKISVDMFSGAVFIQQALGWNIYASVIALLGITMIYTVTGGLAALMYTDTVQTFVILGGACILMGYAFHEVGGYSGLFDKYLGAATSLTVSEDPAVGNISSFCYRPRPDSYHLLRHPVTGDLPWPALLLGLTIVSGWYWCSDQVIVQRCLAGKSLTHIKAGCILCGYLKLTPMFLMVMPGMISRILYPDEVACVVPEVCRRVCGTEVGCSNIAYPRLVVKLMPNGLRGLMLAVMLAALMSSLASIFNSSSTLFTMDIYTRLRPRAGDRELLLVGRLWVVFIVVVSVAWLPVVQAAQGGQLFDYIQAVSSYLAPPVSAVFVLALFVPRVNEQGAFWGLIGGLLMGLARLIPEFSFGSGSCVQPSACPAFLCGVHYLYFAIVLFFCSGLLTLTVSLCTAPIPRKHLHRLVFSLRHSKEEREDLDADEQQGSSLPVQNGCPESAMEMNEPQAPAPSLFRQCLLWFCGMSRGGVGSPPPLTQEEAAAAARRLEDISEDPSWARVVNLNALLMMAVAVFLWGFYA

[1] = 0.5 h, concentration not given, read-out: NORMALIZED SGLT1 ACTIVITY (%)
[2] = 0.5 h, mean, concentration not given, read-out: NORMALIZED SGLT2 ACTIVITY (%)

Compound	CY[…] (% of vehicle control) Mean (CHO‐hSGLT1/2 cells; mean)	activity (hSGLT2; mean) [%]	SGLT2/SGLT1 ACTIVITY RATIO 5 uM Mean (hSGLT2)	CYTOTOXICITY (% of vehicle control) Mean (CHO‐hSGLT1/2 cells; mean)	also measured
OC(CCN1CCCCC1)(c1ccccc1)C1CC2C=CC1C2 (stereo not shown) [Biperiden HCl]	-7 % of vehicle control	75	0.949		activity (SGLT1): 79%
CCCCN1CCCCC1C(=O)Nc1c(C)cccc1C (stereo not shown) [Bupivacaine HCl monohydrate]					CY[…] 50 mM (CHO‐hSGLT1/2 cells; mean, at 50 mM (so in the source)): -2.27; remaining activity at 5 µM (SGLT1; [1]): 68%; remaining activity at 50 µM (SGLT1; [1]): 36%; remaining activity at 5 µM (hSGLT2; [2]): 72%; remaining activity at 50 µM (hSGLT2; [2]): 50%
CCN(CC)CCOC(=O)C1(c2ccccc2)CCCC1 [Caramiphen HCl]		88	0.9	-5.41 % of vehicle control	activity (SGLT1): 101%
CC1(C)C(=O)C=C[C@@]2(C)C1=C(O)C(=O)[C@]1(C)[C@@H]2CC[C@@]2(C)[C@H](c3ccoc3)C[C@H]3O[C@]321 [Cedrelone]					CYTOTOXICITY, mean (CHO‐hSGLT1/2 cells): -26; SGLT2/SGLT1 ACTIVITY RATIO, first concentration (hSGLT2): 1.2; SGLT2/SGLT1 ACTIVITY RATIO, second concentration (hSGLT2): 1.1
COc1ccc(-c2coc3cc(O[C@@H]4O[C@H](CO)[C@@H](O)[C@H](O)[C@H]4O)c(OC)cc3c2=O)cc1OC [Cladrastin-7-O-b-D-glucopyranoside]		103	1.0	-23 % of vehicle control	activity (SGLT1): 104%
CNCCCN1c2ccccc2CCc2ccccc21 [Desipramine HCl]	-19 % of vehicle control		0.759		
CCN(CC)CCOC(=O)C(c1ccccc1)C1CCCCC1 (stereo not shown) [Drofenine HCl]	1.71 % of vehicle control	72			
COc1cc2c(=O)c(-c3ccc(O)cc3)coc2cc1O[C@@H]1O[C@H](CO)[C@@H](O)[C@H](O)[C@H]1O [Glycitin]		106	1.1	-22 % of vehicle control	
O=C1C[C@@H](c2ccc(O[C@@H]3O[C@H](CO)[C@@H](O)[C@H](O)[C@H]3O)cc2)Oc2cc(O)ccc21 [Liquiritin]		101	1.0	-10 % of vehicle control	
CN1CCOC(c2ccccc2)c2ccccc2C1 (stereo not shown) [Nefopam HCl]	-25 % of vehicle control		0.9		
CC1(C)OC(=O)C=C[C@]2(C)[C@H]3CC[C@@]4(C)[C@H](c5ccoc5)OC(=O)[C@H]5O[C@]54[C@]3(C)C(=O)C[C@@H]12 [Obacunone]					CYTOTOXICITY, mean (CHO‐hSGLT1/2 cells): -21; SGLT2/SGLT1 ACTIVITY RATIO, first concentration (hSGLT2): 1.2; SGLT2/SGLT1 ACTIVITY RATIO, second concentration (hSGLT2): 1.1
CC=C(C)C(=O)O[C@H]1c2c(ccc3ccc(=O)oc23)OC(C)(C)[C@H]1OC(=O)C(C)=CC [Praeruptorin B - JR MediChem]			0.9	-19 % of vehicle control	
CC(=O)O[C@@H]1C[C@H](O)[C@@]23CO[C@@H](O)[C@]1(C)[C@@H]2C[C@@H](O)[C@]1(C)[C@@H]3C(=O)[C@H](OC(C)=O)[C@@]2(C)[C@H](c3ccoc3)C[C@H]3O[C@]321 [Toosendanin]					CYTOTOXICITY, mean (CHO‐hSGLT1/2 cells): -4.53; SGLT2/SGLT1 ACTIVITY RATIO, first concentration (hSGLT2): 1.0; SGLT2/SGLT1 ACTIVITY RATIO, second concentration (hSGLT2): 1.0
CC(CN(C)C)CN1c2ccccc2CCc2ccccc21 (stereo not shown) [Trimipramine maleate]	-9 % of vehicle control	87	1.0		
CC1(C)C(=O)C=C[C@@]2(C)C1=C(O)C(=O)[C@]1(C)[C@@H]2[C@@H](O)CC2=C(c3ccoc3)C[C@@H](O)[C@]21C [Walsuronoid B]					CYTOTOXICITY, mean (CHO‐hSGLT1/2 cells): -23; SGLT2/SGLT1 ACTIVITY RATIO, first concentration (hSGLT2): 0.9; SGLT2/SGLT1 ACTIVITY RATIO, second concentration (hSGLT2): 1.0
